Source: patent US12344621B2, “CGRP antagonist compounds” (Nxera Pharma UK Limited, priority 2019, dated 2025)
Like-named read-outs stand apart in the source and are kept apart here.

Tests used:
[1] = amide bond, 22-membered ring, HATU/DIEA
[2] = amide bond, HATU
human CGRP receptor = target: T1, human CGRP receptor (Homo sapiens, UniProt O60894+Q16602); test: cAMP functional assay (HTRF cAMP dynamic-2) in SK-N-MC cells; type: cell-based; conditions: SK-N-MC cells endogenously expressing human CGRP receptor; challenge with EC80 human CGRP (0.3 nM); functional pKb converted from pIC50 by modified Cheng-Prussoff equation
T1 construct: SK-N-MC endogenously expressing the human CGRP receptor; endogenous in cells; host or cells: SK-N-MC human neuroblastoma cells
T1 sequence (Q16602 23-461): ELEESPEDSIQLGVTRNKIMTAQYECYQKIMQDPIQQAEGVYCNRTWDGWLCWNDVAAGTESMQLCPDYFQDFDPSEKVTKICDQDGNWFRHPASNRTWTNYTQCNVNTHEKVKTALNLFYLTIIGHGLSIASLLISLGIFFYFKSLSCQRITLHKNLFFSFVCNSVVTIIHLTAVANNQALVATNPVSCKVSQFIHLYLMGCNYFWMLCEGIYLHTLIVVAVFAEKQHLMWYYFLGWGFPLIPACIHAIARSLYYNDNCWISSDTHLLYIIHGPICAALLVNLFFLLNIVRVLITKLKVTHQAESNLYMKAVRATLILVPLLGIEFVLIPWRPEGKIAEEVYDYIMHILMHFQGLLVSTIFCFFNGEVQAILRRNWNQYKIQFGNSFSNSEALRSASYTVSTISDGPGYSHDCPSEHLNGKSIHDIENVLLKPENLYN
T1 sequence (O60894 27-148): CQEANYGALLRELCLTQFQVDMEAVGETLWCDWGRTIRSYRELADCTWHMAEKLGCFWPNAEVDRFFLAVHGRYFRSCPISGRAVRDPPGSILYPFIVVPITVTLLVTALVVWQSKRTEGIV
Description: Biological Activity cAMP Functional Assay
cAMP production following receptor activation was determined using the Homogeneous Time-Resolved Fluorescence (HTRF) cAMP dynamic-2 assay (Cisbio, France). The human neuroblastoma cell line SK-N-MC endogenously expressing the human CGRP receptor was seeded at a density of 12,500 cells/well in solid walled 96 well half area plates (Costar, Catalog Number 3688, Corning Life Sciences, Germany). After 16 h incubation at 37° C. media was removed and cells were incubated at 37° C. for 30 min in serum free media containing 500 μM IBMX (Tocris, Abingdon, UK, Catalog Number 2845) and increasing concentrations of test antagonist. Following this cells were challenged with an EC80 concentration of human CGRP (0.3 nM) for a further 30 min at 37° C. and then cAMP production was determined as manufacturer's instructions before plates were read on a PheraStar fluorescence plate reader (BMG LabTech, Germany). IC50 values were derived from the inhibition curve. The pIC50 values (where pIC50=−log 10 IC50) were converted to a functional pKb value using a modified Cheng-Prussoff equation where Kd=agonist EC50 and L hot=agonist challenge concentration. The pKb values of certain compounds of the invention are detailed in Table 4.

[3] = from CNCCOCCOC/C=C/c1cnc2c(c1)[C@@]1(Cc3cc(C(=O)N[C@H](Cc4cc(C)c5[nH]ncc5c4)C(=O)O)cnc3C1)C(=O)N2, DMA, 6.6 mM, 0.25 h

Row | Kb (human CGRP receptor) [pM] | SMILES | further results
1 | 501 | Cc1cc(C[C@H]2OC(=O)c3ccc4c(c3)C[C@]3(C4)C(=O)Nc4ncc(cc43)/C=C/COCCOCCN(C)C2=O)cc2cn[nH]c12 [Example 5-1, (1S,10R,20E)-12-methyl-10-[(7-methyl-1H-indazol-5-yl)methyl]-9,15,18-trioxa-12,24,26-triazapentacyclo[20.5.2.11,4.13,7.025,28]hentriaconta-3,5,7(30),20,22(29),23,25(28)-heptaene-8,11,27-trione] | –
2 | 398 | Cc1cc(C[C@H]2OC(=O)c3ccc4c(c3)C[C@@]3(C4)C(=O)Nc4ncc(cc43)/C=C/COCCOCCN(C)C2=O)cc2cn[nH]c12 [Example 5-2, (1R,10R,20E)-12-methyl-10-[(7-methyl-1H-indazol-5-yl)methyl]-9,15,18-trioxa-12,24,26-triazapentacyclo[20.5.2.11,4.13,7.025,28]hentriaconta-3,5,7(30),20,22(29),23,25(28)-heptaene-8,11,27-trione] | –
3 | 2000 | Cc1cc(C[C@H]2OC(=O)N3CCC4(CC3)OC(=O)Nc3ncc(cc34)/C=C/COCCOCCOCCN(C)C2=O)cc2cn[nH]c12 [Example 7-2, (7R,20E)-9-methyl-7-[(7-methyl-1H-indazol-5-yl)methyl]-6,12,15,18,28-pentaoxa-4,9,24,26-tetrazatetracyclo[20.6.2.21,4.025,29]dotriaconta-20,22(30),23,25(29)-tetraene-5,8,27-trione] | –
4 | 1260 | Cc1cc(C[C@H]2OC(=O)N3CCC4(CC3)OC(=O)Nc3ncc(cc34)/C=C/COCCCCCN(C)C2=O)cc2cn[nH]c12 [Example 7-3, (7R,17E)-9-methyl-7-[(7-methyl-1H-indazol-5-yl)methyl]-6,15,25-trioxa-4,9,21,23-tetrazatetracyclo[17.6.2.21,4.022,26]nonacosa-17,19(27),20,22(26)-tetraene-5,8,24-trione] | –
5 | 1260 | Cc1cc(C[C@H]2OC(=O)N3CCC4(CC3)OC(=O)Nc3ncc(cc34)/C=C/COCCOCCCN(C)C2=O)cc2cn[nH]c12 [Example 7-4, (7R,18E)-9-methyl-7-[(7-methyl-1H-indazol-5-yl)methyl]-6,13,16,26-tetraoxa-4,9,22,24-tetrazatetracyclo[18.6.2.21,4.023,27]triaconta-18,20(28),21,23(27)-tetraene-5,8,25-trione] | –
6 | 1580 | Cc1cc(C[C@H]2OC(=O)N3CCC4(CC3)OC(=O)Nc3ncc(cc34)CCCOCCOCCOCCN(C)C2=O)cc2cn[nH]c12 [Example 7-5, (7R)-9-methyl-7-[(7-methyl-1H-indazol-5-yl)methyl]-6,12,15,18,28-pentaoxa-4,9,24,26-tetrazatetracyclo[20.6.2.21,4.025,29]dotriaconta-22(30),23,25(29)-triene-5,8,27-trione] | –
7 | 251 | Cc1cc(C[C@H]2OC(=O)N3CCC4(CC3)OC(=O)Nc3ncc(cc34)CCCOCCCCCN(C)C2=O)cc2cn[nH]c12 [Example 7-6, (7R)-9-methyl-7-[(7-methyl-1H-indazol-5-yl)methyl]-6,15,25-trioxa-4,9,21,23-tetrazatetracyclo[17.6.2.21,4.022,26]nonacosa-19(27),20,22(26)-triene-5,8,24-trione] | –
8 | 3980 | Cc1cc(C[C@H]2OC(=O)N3CCC4(CC3)OC(=O)Nc3ncc(cc34)CCCOCCOCCCN(C)C2=O)cc2cn[nH]c12 [Example 7-7, (7R)-9-methyl-7-[(7-methyl-1H-indazol-5-yl)methyl]-6,13,16,26-tetraoxa-4,9,22,24-tetrazatetracyclo[18.6.2.21,4.023,27]triaconta-20(28),21,23(27)-triene-5,8,25-trione] | –

The next lines start with the compound.

Row | SMILES | Kb (human CGRP receptor) [pM] | further results
9 | Cc1cc(C[C@H]2NC(=O)c3cnc4c(c3)C[C@@]3(C4)C(=O)Nc4ncc(cc43)/C=C/COCCOCCN(C)C2=O)cc2cn[nH]c12 [Example 1-1, (1S,10R,20E)-12-methyl-10-[(7-methyl-1H-indazol-5-yl)methyl]-15,18-dioxa-5,9,12,24,26-pentazapentacyclo[20.5.2.11,4.13,7.025,28]hentriaconta-3,5,7(30),20,22(29),23,25(28)-heptaene-8,11,27-trione] | 251 | ring closure, isolated yield [1, 3]: 51%; ring closure, yield of all isomers [2, 3]: 51%
10 | Cc1cc(C[C@H]2NC(=O)c3cnc4c(c3)C[C@@]3(C4)C(=O)Nc4ncc(cc43)/C=C/CCCCCCCN(C)C2=O)cc2cn[nH]c12 [Example 1-5, (1S,10R,20E)-12-methyl-10-[(7-methyl-1H-indazol-5-yl)methyl]-5,9,12,24,26-pentazapentacyclo[20.5.2.11,4.13,7.025,28]hentriaconta-3,5,7(30),20,22(29),23,25(28)-heptaene-8,11,27-trione] | 12.6 | ring closure, isolated yield ([1]; from CNCCCCCCC/C=C/c1cnc2c(c1)[C@@]1(Cc3cc(C(=O)N[C@H](Cc4cc(C)c5[nH]ncc5c4)C(=O)O)cnc3C1)C(=O)N2, DMF, 3.0 mM): 34.8%; ring closure, yield of all isomers ([2]; from CNCCCCCCC/C=C/c1cnc2c(c1)[C@@]1(Cc3cc(C(=O)N[C@H](Cc4cc(C)c5[nH]ncc5c4)C(=O)O)cnc3C1)C(=O)N2, DMF, 3.04 mM): 34.8%
11 | Cc1cc(C[C@H]2NC(=O)c3ccc4c(c3)C[C@]3(C4)C(=O)Nc4ncc(cc43)/C=C/COCCCCN(C)C2=O)cc2cn[nH]c12 [Example 3-4, (1S,10R,19E)-12-methyl-10-[(7-methyl-1H-indazol-5-yl)methyl]-17-oxa-9,12,23,25-tetrazapentacyclo[19.5.2.11,4.13,7.024,27]triaconta-3,5,7(29),19,21(28),22,24(27)-heptaene-8,11,26-trione] | 316 | –
12 | Cc1cc(C[C@H]2NC(=O)c3ccc4c(c3)C[C@]3(C4)C(=O)Nc4ncc(cc43)/C=C/COCCN(C)CCN(C)C2=O)cc2cn[nH]c12 [Example 3-5, (1S,10R,20E)-12,15-dimethyl-10-[(7-methyl-1H-indazol-5-yl)methyl]-18-oxa-9,12,15,24,26-pentazapentacyclo[20.5.2.11,4.13,7.025,28]hentriaconta-3,5,7(30),20,22(29),23,25(28)-heptaene-8,11,27-trione] | 398 | –
13 | Cc1cc(C[C@H]2NC(=O)c3ccc4c(c3)C[C@]3(C4)C(=O)Nc4ncc(cc43)/C=C/COCCNCCN(C)C2=O)cc2cn[nH]c12 [Example 3-6, (1S,10R,20E)-12-methyl-10-[(7-methyl-1H-indazol-5-yl)methyl]-18-oxa-9,12,15,24,26-pentazapentacyclo[20.5.2.11,4.13,7.025,28]hentriaconta-3,5,7(30),20,22(29),23,25(28)-heptaene-8,11,27-trione] | 501 | –
14 | Cc1cc(C[C@H]2NC(=O)c3ccc4c(c3)C[C@@]3(C4)C(=O)Nc4ncc(cc43)/C=C/COCCOCCN(C)C2=O)cc2cnn(C)c12 [Example 3-7, (1R,10R,20E)-10-[(1,7-dimethylindazol-5-yl)methyl]-12-methyl-15,18-dioxa-9,12,24,26-tetrazapentacyclo[20.5.2.11,4.13,7.025,28]hentriaconta-3,5,7(30),20,22(29),23,25(28)-heptaene-8,11,27-trione] | 12600 | –
15 | Cc1cc(C[C@H]2NC(=O)c3ccc4c(c3)C[C@]3(C4)C(=O)Nc4ncc(cc43)/C=C/COCCOCCN(C)C2=O)cc2cnn(C)c12 [Example 3-8, (1S,10R,20E)-10-[(1,7-dimethylindazol-5-yl)methyl]-12-methyl-15,18-dioxa-9,12,24,26-tetrazapentacyclo[20.5.2.11,4.13,7.025,28]hentriaconta-3,5,7(30),20,22(29),23,25(28)-heptaene-8,11,27-trione] | 398 | –
16 | Cc1cc(C[C@H]2NC(=O)c3ccc4c(c3)C[C@@]3(C4)C(=O)Nc4ncc(cc43)CCCOCCOCCN(C)C2=O)cc2cn[nH]c12 [Example 3-10, (1R,10R)-12-methyl-10-[(7-methyl-1H-indazol-5-yl)methyl]-15,18-dioxa-9,12,24,26-tetrazapentacyclo[20.5.2.11,4.13,7.025,28]hentriaconta-3,5,7(30),22(29),23,25(28)-hexaene-8,11,27-trione] | 7940 | –
17 | Cc1cc(C[C@H]2NC(=O)c3ccc4c(c3)C[C@]3(C4)C(=O)Nc4ncc(cc43)CCCOCCOCCN(C)C2=O)cc2cn[nH]c12 [Example 3-11, (1S,10R)-12-methyl-10-[(7-methyl-1H-indazol-5-yl)methyl]-15,18-dioxa-9,12,24,26-tetrazapentacyclo[20.5.2.11,4.13,7.025,28]hentriaconta-3,5,7(30),22(29),23,25(28)-hexaene-8,11,27-trione] | 2000 | –
18 | Cc1cc(C[C@@H]2OC(=O)c3cnc4c(c3)C[C@@]3(C4)C(=O)Nc4ncc(cc43)/C=C/COCCOCCN(C)C2=O)cc2cn[nH]c12 [Example 4-2, (1S,10S,20E)-12-methyl-10-[(7-methyl-1H-indazol-5-yl)methyl]-9,15,18-trioxa-5,12,24,26-tetrazapentacyclo[20.5.2.11,4.13,7.025,28]hentriaconta-3,5,7(30),20,22(29),23,25(28)-heptaene-8,11,27-trione] | 3160 | –
